Measurements from ChEMBL document CHEMBL3421566 (J Med Chem, 2015).
≈ marks a conversion by molar mass, not a printed value. Calls of active or inactive are those of the source. The calls are words filed in the database; no cut-off is given here.

Tests used:
Escherichia coli [1] = experiment: Antibacterial activity against Escherichia coli ATCC 25922 by two-fold broth microdilution method; format: functional
Escherichia coli [2] = experiment: Antibacterial activity against Escherichia coli ATCC 8739 by two-fold broth microdilution method; format: functional
[3] = system: Mycolicibacterium smegmatis; experiment: Antibacterial activity against Mycobacterium smegmatis ATCC 700084 after 24 to 48 hrs by two-fold broth microdilution method; format: functional
Escherichia coli [4] = experiment: Antibacterial activity against Escherichia coli K-12 by two-fold broth microdilution method; format: functional
[5] = system: Mycolicibacterium smegmatis; experiment: Antibacterial activity against Mycobacterium smegmatis ATCC 607 after 24 to 48 hrs by two-fold broth microdilution method; format: functional
[6] = molecular target: T1, 1-deoxy-D-xylulose 5-phosphate reductoisomerase (Escherichia coli) (UniProt W8T2T2); experiment: Inhibition of recombinant Escherichia coli Dxr expressed in Escherichia coli BL21 CodonPlus (DE3)-RIL cells using DOXP as substrate assessed as NADPH oxidation at 100 uM preincubated for 5 mins with NADPH followed by substrate addition by spectrophotometric analysis
T1 sequence (whole entry): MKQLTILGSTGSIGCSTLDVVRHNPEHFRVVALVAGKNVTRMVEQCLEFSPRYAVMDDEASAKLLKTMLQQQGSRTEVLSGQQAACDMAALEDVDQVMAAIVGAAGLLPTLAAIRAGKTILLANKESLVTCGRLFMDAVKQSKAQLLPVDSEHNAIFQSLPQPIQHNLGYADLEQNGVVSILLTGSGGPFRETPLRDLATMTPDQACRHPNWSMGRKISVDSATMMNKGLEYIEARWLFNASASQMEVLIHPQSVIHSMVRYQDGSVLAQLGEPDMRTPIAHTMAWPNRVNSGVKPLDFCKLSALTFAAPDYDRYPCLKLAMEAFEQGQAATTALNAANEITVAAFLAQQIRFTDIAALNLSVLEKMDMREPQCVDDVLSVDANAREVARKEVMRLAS

Plasmodium falciparum [7] = experiment: Schizontocidal activity against Plasmodium falciparum K1 infected in human RBC after 72 hrs by Malstat reagent-based spectrophotometric analysis; format: functional; conditions: K1, 72 h
[8] = molecular target: T2, 1-deoxy-D-xylulose 5-phosphate reductoisomerase (Mycobacterium tuberculosis) (UniProt P9WNS1); experiment: Inhibition of recombinant Mycobacterium tuberculosis Dxr expressed in Escherichia coli BL21 CodonPlus (DE3)-RIL cells using DOXP as substrate assessed as NADPH oxidation at 100 uM by spectrophotometric analysis
T2 sequence (whole entry): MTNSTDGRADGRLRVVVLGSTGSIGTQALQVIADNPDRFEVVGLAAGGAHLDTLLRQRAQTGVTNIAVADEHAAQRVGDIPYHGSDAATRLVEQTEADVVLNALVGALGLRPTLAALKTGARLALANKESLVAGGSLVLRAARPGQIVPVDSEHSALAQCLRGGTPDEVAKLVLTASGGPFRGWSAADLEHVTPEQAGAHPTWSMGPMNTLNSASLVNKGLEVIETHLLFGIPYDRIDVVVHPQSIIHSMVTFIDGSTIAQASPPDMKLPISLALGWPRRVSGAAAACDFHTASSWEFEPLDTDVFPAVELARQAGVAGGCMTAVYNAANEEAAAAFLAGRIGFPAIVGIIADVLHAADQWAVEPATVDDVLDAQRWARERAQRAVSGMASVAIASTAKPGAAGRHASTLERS

[9] = molecular target: T3, 1-deoxy-D-xylulose 5-phosphate reductoisomerase (Mycobacterium tuberculosis, UniProt P9WNS1); experiment: Inhibition of recombinant Mycobacterium tuberculosis Dxr expressed in Escherichia coli BL21 CodonPlus (DE3)-RIL cells using DOXP as substrate assessed as NADPH oxidation by spectrophotometric analysis
T3 sequence (P9WNS1 whole entry): T2 sequence (whole entry)

[10] = molecular target: T4, 1-deoxy-D-xylulose 5-phosphate reductoisomerase (Escherichia coli, UniProt W8T2T2); experiment: Inhibition of recombinant Escherichia coli Dxr expressed in Escherichia coli BL21 CodonPlus (DE3)-RIL cells using DOXP as substrate assessed as NADPH oxidation preincubated for 5 mins with NADPH followed by substrate addition by spectrophotometric analysis
T4 sequence (W8T2T2 whole entry): T1 sequence (whole entry)

[11] = Inhibition of recombinant Plasmodium falciparum Dxr expressed in Escherichia coli C43(DE3) using DOXP as substrate assessed as NADPH oxidation by spectrophotometric analysis
Plasmodium falciparum [12] = experiment: Inhibition of recombinant Plasmodium falciparum Dxr expressed in Escherichia coli C43(DE3) using DOXP as substrate assessed as NADPH oxidation at 100 uM by spectrophotometric analysis

SMILES	MIC50 (Escherichia coli [1]) [µM]	MIC50 (Escherichia coli [2]) [µM]	MIC50 [3] [µM]	MIC50 (Escherichia coli [4]) [µM]	MIC50 [5] [µM]	inhibition [6]	MIC50 (Plasmodium falciparum [7]) [µM]	inhibition [8]	IC50 [9] [nM]	IC50 [10] [nM]	IC50 [11] [nM]	inhibition (Plasmodium falciparum [12])
CC(=O)N(O)CCCP(=O)(O)O [FR-900098]	62.5 (≈ 12.3 µg/mL)	7.8 (≈ 1.54 µg/mL)	> 250	15.6 (≈ 3.08 µg/mL)	> 250							
CN(O)C(=O)CC(CP(=O)(O)O)c1ccc(Cl)c(Cl)c1 (centres undefined)	> 250	> 250	> 250	> 250	> 250	inactive	> 64	inactive				
CN(O)C(=O)CC(CCCc1ccccc1)CP(=O)(O)O (centres undefined)	> 250	> 250	> 250	> 250	> 250		0.43 (≈ 0.136 µg/mL)		843	10300	117	
CN(O)C(=O)CCCP(=O)(O)O	15.6 (≈ 3.08 µg/mL)	31.2 (≈ 6.16 µg/mL)	> 250	31.2 (≈ 6.16 µg/mL)	> 250		0.26 (≈ 0.0513 µg/mL)		159	1150		
CN(O)C(=O)CC(Cc1ccccc1)CP(=O)(O)O (centres undefined)						Active	≥ 56.8					Active
CN(O)C(=O)CC(CCc1ccccc1)CP(=O)(O)O (centres undefined)	> 250	> 250	> 250	> 250	> 250		35.4 (≈ 10.7 µg/mL)		31400		1360	
CN(O)C(=O)CC(CP(=O)(O)O)c1ccccc1 (centres undefined)	> 250	> 250	> 250	> 250	> 250	inactive	> 64	inactive			3300	
COc1ccc(C(CC(=O)N(C)O)CP(=O)(O)O)cc1 (centres undefined)	> 250	> 250	> 250	> 250	> 250	inactive	> 64	inactive			18800	
Cc1ccc(C(CC(=O)N(C)O)CP(=O)(O)O)cc1 (centres undefined)	> 250	> 250	> 250	> 250	> 250	inactive	> 64	inactive			9300	
CN(O)C(=O)CC(CCCCc1ccccc1)CP(=O)(O)O (centres undefined)	> 250	> 250	> 250	> 250	> 250		< 0.25		6670	273000	69	
CC(CC(=O)N(C)O)CP(=O)(O)O (centres undefined)							0.74 (≈ 0.156 µg/mL)		205	7130		
CN(O)C(=O)CC(CP(=O)(O)O)c1ccc(Cl)cc1 (centres undefined)	> 250	> 250	> 250	> 250	> 250	inactive	> 64	inactive				
O=CN(O)CCCP(=O)(O)O [FOSMIDOMYCIN]	250 (≈ 45.8 µg/mL)	0.98 (≈ 0.179 µg/mL)	> 250	7.8 (≈ 1.43 µg/mL)	> 250						36	
